Common to all, as to experiment: NCI-60 cell line screen, 48 h
In assay [1] the test system is CAKI-1 renal.
Assay [2] deals with HOP-62 NSCLC.
Assay [3] has as its system OVCAR-4 ovarian.
For assay [4], the system named is OVCAR-5 ovarian.
For assay [5], the system named is OVCAR-8 ovarian.
In assay [6] the test system is SK-MEL-2 melanoma.
Assay [7] has as its system SK-OV-3 ovarian.
Assay [8] relates to SN12C renal.
The test system of assay [9] is MOLT-4 leukemia.
Assay [10] has as its system SR leukemia.

These results are taken from PubChem BioAssay (NCI).

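How tested: cells in 96-well plates exposed to compound for 48 hours at five concentrations. GI50 = concentration required for 50% inhibition of growth. TGI: total growth inhibition.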

Take `O=C1C(=O)N(C2C3CC4CC(C3)CC2C4)C(=O)C(=O)C1c1nc2ccccc2o1` (stereo not drawn): the TGI in assay [1], in assay [2], in assay [3], in [4], in [5] and in [6] was > 100 µM throughout. Besides, the TGI in assay [7] and in assay [8] was > 100 µM each time.
For the compound `CC(=O)OC1C2(CC3N4C(=O)C5(CO)SSC4(CC31O)C(=O)N5C)OC(C)C(C)(C)C2=O` (stereo not drawn), the GI50 in assay [1] was 1.88 µM; in assay [2], 0.575 µM; in assay [9] it was < 0.0179 µM; in [3] it was < 0.0114 µM; in assay [4] it was 0.0578 µM; in assay [5] it was < 0.0495 µM. For the same compound, the GI50 in assay [6] was 0.339 µM; in [7] it was 0.0745 µM; in assay [8] it was < 0.0114 µM. For the same compound, the TGI was determined as 3.86 µM in [1]; 1.08 µM in assay [2]; 0.0622 µM in assay [9]; 0.0345 µM in assay [3]; 0.208 µM in [4]; 0.222 µM in assay [5]. Further, the TGI in [6] came to 1.79 µM; in assay [7], 0.454 µM; in assay [8], 0.05 µM.
Take `COc1ccc(COCC(Cn2ccnc2)OCc2ccc(C(=O)O)cc2)cc1` (stereo not drawn): the TGI in assay [1], in assay [2], in assay [9], in assay [3], in assay [4] and in assay [5] was > 100 µM throughout. Also, the TGI in [6], in assay [7] and in assay [8] was > 100 µM in each case.
As for `CCOc1ccc(NC(=O)CC2SC(N)=NC2=O)cc1` (stereo not drawn), the TGI in assay [2], in assay [9], in assay [3], in [4], in assay [5] and in assay [6] was > 100 µM each time. Besides, the TGI in assay [8] is > 100 µM.
`Cc1c(C)c2ccc(OC/C=C3\CCC(=O)O3)cc2oc1=O`: the GI50 in [1] was 15.3 µM; in assay [2], 15 µM; in [9] it was 19.8 µM; in assay [3] it was 12.6 µM; in assay [4] it was 16.5 µM; in assay [5] it was 16.5 µM. Moreover, the values for the GI50 in [6], in assay [7] and in [8] were 14.2 µM, 26.5 µM and 18.2 µM, respectively. For the same compound, the TGI in assay [1] was 30.6 µM; in [2], 28.8 µM; in assay [9] it was > 100 µM; in [3] it was 28.9 µM; in assay [4] it was 31.1 µM; in assay [5], 34.8 µM. In addition, the TGI in assay [6] is 30.7 µM; in assay [7] it was 93.1 µM; in assay [8], 43 µM.
With `FC(F)(F)c1ccc2nc(Nc3ccc(Cl)c(Cl)c3)c(-c3ccccc3)nc2c1`, the TGI in assay [2], in assay [9], in assay [4], in [5], in assay [6] and in [8] was > 100 µM in each case. For the same compound, the TGI in [10] was > 100 µM.
As for `COc1ccc2cc3n(c2c1)CCc1cc(OC)c(OC)cc1-3`, the TGI in [1], in assay [2], in assay [9], in assay [3], in assay [5] and in assay [6] was > 100 µM in each case. The TGI in assay [7] and in [8] was > 100 µM in each case.
Consider `CC1CC2(CC[C@@H]1O)OCCO2` (stereo partly drawn), for which the TGI in assay [1], in [2], in assay [9], in assay [3], in assay [5] and in assay [6] was > 100 µM throughout. In addition, the TGI in assay [7] and in [8] was > 100 µM in each case.
Take `CCOC(=O)N1CCN(S(=O)(=O)c2oc(-c3ccc(Cl)cc3)nc2C#N)CC1`: the GI50 in [1] is 1.75 µM; in [2], 13.5 µM; in assay [9] it was 0.739 µM; in assay [3], 2.36 µM; in assay [4], 3.92 µM; in [5] it was 3.23 µM. Also, the GI50 in [6] was 3.96 µM; in [7] it was 74.1 µM; in assay [8], 1.66 µM. Besides, the TGI is 3.14 µM in assay [1]; > 100 µM in assay [2]; 4.35 µM in assay [9]; 5.5 µM in assay [3]; 13.3 µM in assay [4]; 23.3 µM in [5]. For the same compound, the values for the TGI in [6], in assay [7] and in assay [8] were 13.8 µM, > 100 µM and 3.23 µM, respectively.
In the case of `COc1ccc(-c2ccc(/C=N/n3c(COc4ccc(Cl)cc4)n[nH]c3=S)o2)c([N+](=O)[O-])c1`, the GI50 in assay [1] is 3.96 µM; in assay [2] it was 22.6 µM; in assay [9], 16.5 µM; in assay [3] it was 2.87 µM; in assay [4] it was 24.7 µM; in assay [5] it was 24.6 µM. The GI50 is 41.9 µM in assay [6], 19.9 µM in [7] and 19.9 µM in [8]. For the same compound, the TGI in [1] was 22.2 µM; in assay [2], 40.4 µM; in assay [9], 75.4 µM; in assay [3], 18.2 µM; in assay [4] it was 51.4 µM; in assay [5], > 100 µM. In addition, the results for the TGI in [6], in assay [7] and in assay [8] were > 100 µM, 53.3 µM and 53.4 µM, respectively.
As for `CCOC(=O)c1cnn(-c2ccnc3c(C(F)(F)F)cccc23)c1N`, the GI50 in assay [1], in assay [2], in assay [9], in assay [3], in assay [4] and in assay [5] was > 100 µM each time. Further, the GI50 in assay [6], in [7] and in assay [8] was > 100 µM each time. For the same compound, the TGI in [1], in assay [2], in [9], in [3], in assay [4] and in assay [5] was > 100 µM throughout. The TGI in assay [6], in [7] and in [8] was > 100 µM in each case.
For `CC(=O)C1=C([O-])C(C)OC1=O.CC(=O)C1=C([O-])C(C)OC1=O.[NH-]C1CCCC[C@H]1[NH-].[Pt+4]` (stereo not drawn), the GI50 in [1] is 35.9 µM; in assay [2], > 100 µM; in [9], 3.9 µM; in assay [3], 88.9 µM; in [5] it was > 100 µM; in [6], > 100 µM. Besides, the GI50 was > 100 µM in assay [7] and 41.6 µM in assay [8]. Moreover, the TGI in assay [1] was > 100 µM; in assay [2], > 100 µM; in [9], 53.9 µM; in assay [3] it was > 100 µM; in assay [5], > 100 µM; in assay [6], > 100 µM. In addition, the TGI in [7] and in [8] was > 100 µM each time.
As for `CC1=NN(C(=O)c2ccc(Cl)cc2)C(=O)/C1=C/c1cccc([N+](=O)[O-])c1`, the TGI in assay [1], in assay [2], in assay [3], in assay [4], in assay [5] and in assay [6] was > 100 µM each time. The TGI in assay [7] and in [8] was > 100 µM each time.
For `CCO[C@@H]1C2C=CC(C2)[C@H]1[N+](=O)[O-]` (stereo partly drawn), the TGI in assay [1], in assay [2], in assay [9], in [3], in [4] and in assay [5] was > 100 µM throughout. The TGI in [6], in assay [7] and in [8] was > 100 µM in each case.
Consider `CC1=CC(=O)C(C(C)=Nc2ccccc2Cl)C(=O)O1` (stereo not drawn), for which the GI50 in [1], in assay [2], in [9], in assay [4], in [5] and in assay [7] was > 100 µM in each case. The GI50 in [8] is > 100 µM. The TGI in [1], in [2], in assay [9], in [4], in assay [5] and in assay [7] was > 100 µM in each case. The TGI in assay [8] is > 100 µM.
`CCC1CN2CCc3cc(OC)c(OC)cc3C2CC1CC1c2cc(OC)c(OC)cc2CCN1C(=O)CNC(=O)OC(C)(C)C` (stereo not drawn): the TGI in assay [1] is 65.1 µM; in [9], 23.1 µM; in assay [3], 7.98 µM; in assay [4] it was 77.3 µM; in [5], > 100 µM; in assay [6], 33.1 µM. For the same compound, the values for the TGI in assay [7] and in assay [8] were 64.7 µM and 90 µM, respectively.
`O=C(O)CCC1CCc2cccc3occ1c23` (stereo not drawn): the TGI in [1], in assay [2], in assay [9], in assay [3], in [4] and in assay [5] was > 100 µM each time. Also, the TGI in assay [6], in [7] and in assay [8] was > 100 µM throughout.
For `Cc1cn2c(/C=N/N/C(N)=N\N)c(-c3ccc(Cl)c([N+](=O)[O-])c3)nc2s1`, the GI50 in assay [1] is 8.49 µM; in [2] it was 4.98 µM; in [4], 1.03 µM; in assay [6], 7.63 µM; in assay [7], 1.29 µM; in assay [8], 1.27 µM. Moreover, the TGI in assay [1] turned out to be 17.6 µM; in assay [2] it was 15.9 µM; in assay [4] it was 2.1 µM; in assay [6] it was 23.4 µM; in assay [7] it was 2.78 µM; in [8] it was 4.09 µM.
For the compound `Cc1c2ccncc2c(C)c2c1[nH]c1ccc(OC(C)(C)C)cc12`, the TGI is 3.4 µM in assay [1]; 9.74 µM in assay [2]; 4.66 µM in assay [9]; 4.21 µM in [3]; 54.9 µM in assay [4]; 9.75 µM in [5]. In addition, the TGI in assay [6] came to 3.88 µM; in [7], 18.8 µM.
Take `CN(C)c1ccc(C(N)=O)cn1`: the TGI in assay [2], in assay [9], in assay [4], in [5], in [6] and in assay [8] was > 100 µM each time. The TGI in assay [10] is > 100 µM.
With `CN(C)C(=O)C1CCC(=C2C(=O)OC(C)(C)OC2=O)N1C` (stereo not drawn), the TGI in [1], in assay [2], in assay [9], in assay [3], in assay [4] and in assay [5] was > 100 µM in each case. The TGI in assay [6], in assay [7] and in assay [8] was > 100 µM each time.
Take `Clc1ccc2nc(Oc3ccccc3)cnc2c1`: the GI50 in [1], in assay [2], in [9], in [3], in assay [4] and in [5] was > 100 µM throughout. The GI50 in assay [7] and in assay [8] was > 100 µM throughout. The TGI in assay [1], in assay [2], in assay [9], in assay [3], in assay [4] and in assay [5] was > 100 µM in each case. For the same compound, the TGI in assay [7] and in assay [8] was > 100 µM in each case.
On to `CC(C)[C@@H](COC(C)(C)C)N=CN1CCc2c([nH]c3ccccc23)C1`, for which the TGI in assay [2], in [9], in assay [3], in assay [4], in assay [5] and in [6] was > 100 µM in each case. For the same compound, the TGI in assay [7] and in [8] was > 100 µM each time.
For the compound `C/C=C(/CCCCNCCCC)[Si](C)(C)C`, the TGI is 31.2 µM in assay [9]; 27.6 µM in assay [4]; 31.8 µM in assay [5]; 33.1 µM in assay [6]; 33.6 µM in assay [7]; 30.5 µM in assay [8]. Also, the TGI in assay [10] is 35.1 µM.
